Test results published in ChEMBL document CHEMBL1201862, “PubChem BioAssay data set” (2004).
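Method: 48-hour compound exposure of cells in 96-well plates, five concentrations, linear interpolation of endpoints. The concentration for 50% growth inhibition is given as GI50.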 Active and inactive are the calls of the source. Cut-off read from the data, not from the text of the source: active = GI50 up to about 1.1 µM and inactive = higher.

How the values were obtained:
Experiment in all cases: growth of human tumour cells (NCI), 48 h
NCI-H522 = tested on: NCI-H522
SR = tested on: SR
SK-MEL-28 = tested on: SK-MEL-28
K562 = tested on: K562
NCI-H460 = tested on: NCI-H460
A498 = tested on: A498
CAKI-1 = tested on: CAKI-1
HT-29 = tested on: HT-29
SNB-19 = tested on: SNB-19
SW-620 = tested on: SW-620
RXF 393 = tested on: RXF 393
HCT-116 = tested on: HCT-116
NCI-H226 = tested on: NCI-H226
NCI/ADR-RES = tested on: NCI/ADR-RES
UACC-62 = tested on: UACC-62
HCT-15 = tested on: HCT-15
HOP-62 = tested on: HOP-62
SF-539 = tested on: SF-539
Malme-3M = tested on: Malme-3M
MDA-MB-231 = tested on: MDA-MB-231
COLO 205 = tested on: COLO 205
SN12C = tested on: SN12C
M14 = tested on: M14
EKVX = tested on: EKVX
IGROV-1 = tested on: IGROV-1
UO-31 = tested on: UO-31
SF-268 = tested on: SF-268
SNB-75 = tested on: SNB-75
PC-3 = tested on: PC-3
DU-145 = tested on: DU-145
SK-OV-3 = tested on: SK-OV-3
BT-549 = tested on: BT-549
SK-MEL-2 = tested on: SK-MEL-2
U-251 = tested on: U-251
MCF7 = tested on: MCF7
TK-10 = tested on: TK-10
KM12 = tested on: KM12
OVCAR-3 = tested on: OVCAR-3
Hs-578T = tested on: Hs-578T
A549 = tested on: A549
RPMI-8226 = tested on: RPMI-8226
OVCAR-4 = tested on: OVCAR-4
UACC-257 = tested on: UACC-257
LOX IMVI = tested on: LOX IMVI
MDA-MB-435 = tested on: MDA-MB-435
SK-MEL-5 = tested on: SK-MEL-5
OVCAR-5 = tested on: OVCAR-5
CCRF-CEM = tested on: CCRF-CEM
MDA-N = tested on: MDA-N
T47D = tested on: T47D
SF-295 = tested on: SF-295
MOLT-4 = tested on: MOLT-4
786-0 = tested on: 786-0
OVCAR-8 = tested on: OVCAR-8
HL-60 = tested on: HL-60
NCI-H23 = tested on: NCI-H23
ACHN = tested on: ACHN
HOP-92 = tested on: HOP-92
HCC 2998 = tested on: HCC 2998

SMILES: Cc1ccnc(NC(=S)Nc2ccccc2Cl)c1
- GI50 (NCI-H522): 0.131 µM (active)
- GI50 (SR): > 100 µM (inactive)
- GI50 (SK-MEL-28): > 100 µM (inactive)
- GI50 (K562): > 100 µM (inactive)
- GI50 (NCI-H460): > 100 µM (inactive)
- GI50 (A498): > 100 µM (inactive)
- GI50 (CAKI-1): > 100 µM (inactive)
- GI50 (HT-29): > 100 µM (inactive)
- GI50 (SNB-19): > 100 µM (inactive)
- GI50 (SW-620): > 100 µM (inactive)
- GI50 (RXF 393): > 100 µM (inactive)
- GI50 (HCT-116): > 100 µM (inactive)
- GI50 (NCI-H226): 63.5 µM (inactive)
- GI50 (NCI/ADR-RES): > 100 µM (inactive)
- GI50 (UACC-62): 63.1 µM (inactive)
- GI50 (HCT-15): > 100 µM
- GI50 (HOP-62): 34.7 µM (inactive)
- GI50 (SF-539): > 100 µM (inactive)
- GI50 (Malme-3M): 53.5 µM (inactive)
- GI50 (MDA-MB-231): 2.23 µM (inactive)
- GI50 (COLO 205): > 100 µM (inactive)
- GI50 (SN12C): > 100 µM (inactive)
- GI50 (M14): > 100 µM (inactive)
- GI50 (EKVX): 40.1 µM (inactive)
- GI50 (IGROV-1): 61.2 µM (inactive)
- GI50 (UO-31): > 100 µM (inactive)
- GI50 (SF-268): 33.6 µM (inactive)
- GI50 (SNB-75): 13 µM (inactive)
- GI50 (PC-3): > 100 µM (inactive)
- GI50 (DU-145): > 100 µM (inactive)
- GI50 (SK-OV-3): 83.8 µM (inactive)
- GI50 (BT-549): > 100 µM (inactive)
- GI50 (SK-MEL-2): > 100 µM (inactive)
- GI50 (U-251): > 100 µM (inactive)
- GI50 (MCF7): > 100 µM (inactive)
- GI50 (TK-10): > 100 µM (inactive)
- GI50 (KM12): > 100 µM (inactive)
- GI50 (OVCAR-3): > 100 µM (inactive)
- GI50 (Hs-578T): 44.7 µM (inactive)
- GI50 (A549): > 100 µM (inactive)
- GI50 (RPMI-8226): > 100 µM (inactive)
- GI50 (OVCAR-4): > 100 µM (inactive)
- GI50 (UACC-257): > 100 µM (inactive)
- GI50 (LOX IMVI): > 100 µM (inactive)
- GI50 (MDA-MB-435): > 100 µM (inactive)
- GI50 (SK-MEL-5): > 100 µM (inactive)
- GI50 (OVCAR-5): > 100 µM (inactive)
- GI50 (CCRF-CEM): > 100 µM (inactive)
- GI50 (MDA-N): > 100 µM (inactive)
- GI50 (T47D): > 100 µM (inactive)
- GI50 (SF-295): 87.7 µM (inactive)
- GI50 (MOLT-4): > 100 µM (inactive)
- GI50 (786-0): > 100 µM (inactive)
- GI50 (OVCAR-8): 77.8 µM (inactive)
- GI50 (HL-60): > 100 µM (inactive)

SMILES: Cn1c(NNc2ccccc2)cc(=O)[nH]c1=O
- GI50 (NCI-H522): 19.1 µM (inactive)
- GI50 (SR): 22.6 µM (inactive)
- GI50 (SK-MEL-28): 37.8 µM (inactive)
- GI50 (K562): 36.7 µM (inactive)
- GI50 (NCI-H460): 51.9 µM (inactive)
- GI50 (CAKI-1): 29.9 µM (inactive)
- GI50 (HT-29): 86.9 µM (inactive)
- GI50 (NCI-H23): > 100 µM (inactive)
- GI50 (SNB-19): > 100 µM (inactive)
- GI50 (SW-620): 62.1 µM (inactive)
- GI50 (RXF 393): 61.8 µM (inactive)
- GI50 (HCT-116): 42.5 µM (inactive)
- GI50 (NCI-H226): > 100 µM (inactive)
- GI50 (NCI/ADR-RES): 35.8 µM (inactive)
- GI50 (UACC-62): 36.1 µM (inactive)
- GI50 (HCT-15): 16.3 µM
- GI50 (HOP-62): > 100 µM (inactive)
- GI50 (SF-539): 29.3 µM (inactive)
- GI50 (Malme-3M): 57.8 µM (inactive)
- GI50 (MDA-MB-231): 28.9 µM (inactive)
- GI50 (COLO 205): 36.9 µM (inactive)
- GI50 (SN12C): > 100 µM (inactive)
- GI50 (M14): 33.9 µM (inactive)
- GI50 (ACHN): 4.25 µM (inactive)
- GI50 (EKVX): > 100 µM (inactive)
- GI50 (HOP-92): 63.8 µM (inactive)
- GI50 (IGROV-1): 48.2 µM (inactive)
- GI50 (UO-31): 28.2 µM (inactive)
- GI50 (HCC 2998): 27.3 µM (inactive)
- GI50 (SF-268): 34.1 µM (inactive)
- GI50 (SNB-75): 81.7 µM (inactive)
- GI50 (PC-3): 38.6 µM (inactive)
- GI50 (DU-145): > 100 µM (inactive)
- GI50 (SK-OV-3): 72.6 µM (inactive)
- GI50 (BT-549): > 100 µM (inactive)
- GI50 (SK-MEL-2): 3.63 µM (inactive)
- GI50 (U-251): 53.5 µM (inactive)
- GI50 (MCF7): 33.8 µM (inactive)
- GI50 (TK-10): > 100 µM (inactive)
- GI50 (KM12): 15.2 µM (inactive)
- GI50 (OVCAR-3): 23.2 µM (inactive)
- GI50 (Hs-578T): > 100 µM (inactive)
- GI50 (A549): 37.7 µM (inactive)
- GI50 (RPMI-8226): 35.3 µM (inactive)
- GI50 (OVCAR-4): 55.8 µM (inactive)
- GI50 (UACC-257): 95.7 µM (inactive)
- GI50 (LOX IMVI): 20 µM (inactive)
- GI50 (MDA-MB-435): 20.9 µM (inactive)
- GI50 (SK-MEL-5): 25.6 µM (inactive)
- GI50 (OVCAR-5): > 100 µM (inactive)
- GI50 (CCRF-CEM): 20.6 µM (inactive)
- GI50 (MDA-N): 20.5 µM (inactive)
- GI50 (T47D): 30.9 µM (inactive)
- GI50 (SF-295): 21.8 µM (inactive)
- GI50 (MOLT-4): 39.3 µM (inactive)
- GI50 (786-0): 20.5 µM (inactive)
- GI50 (OVCAR-8): 29.8 µM (inactive)
- GI50 (HL-60): 32.7 µM (inactive)
